Numbered stars: 1 amine (or outer) side, 2 acyl side, 3 side chain; on linkers, the order of the positions; unused ones are H or OH. Bridge positions count the residues as written; N and C are the ends. Square brackets hold non-standard residues; d marks the D form. Peptide text beside a SMILES is read from it. X1 = O=C([C@@]1(N[*:1])CCc2ccccc2C1)[*:2]; Atc(2S) = N[C@@]1(C(=O)O)CCc2ccccc2C1; Mpa = O=C(O)CCS; Sar = CNCC(=O)O
What was measured:
Vasopressin V2 receptor = Vasopressin V2 receptor (Rattus norvegicus, UniProt Q00788); test: Compound was evaluated for its dissociation constant (Kd) to rat kidney Vasopressin V2 receptor
Vasopressin V1 receptor = Vasopressin V1 receptor (Rattus norvegicus, UniProt P48974+P30560); test: Compound was evaluated for its dissociation constant (Kd) to rat liver Vasopressin V1 receptor
[1] = target: Oxytocin receptor (Cavia porcellus); test: Compound was evaluated for its dissociation constant (Kd) to guinea pig myometrial Oxytocin receptor

Sequence of Vasopressin V2 receptor (Q00788 whole entry): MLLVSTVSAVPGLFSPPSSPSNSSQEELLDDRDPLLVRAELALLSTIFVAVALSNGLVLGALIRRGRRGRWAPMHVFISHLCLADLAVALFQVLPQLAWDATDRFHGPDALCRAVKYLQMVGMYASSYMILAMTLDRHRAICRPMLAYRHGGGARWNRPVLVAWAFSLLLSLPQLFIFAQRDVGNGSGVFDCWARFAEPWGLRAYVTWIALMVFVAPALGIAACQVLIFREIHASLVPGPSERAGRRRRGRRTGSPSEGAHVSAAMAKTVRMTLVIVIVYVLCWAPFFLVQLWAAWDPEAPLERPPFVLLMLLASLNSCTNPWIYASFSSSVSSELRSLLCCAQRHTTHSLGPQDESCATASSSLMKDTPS

Compound	Kd (Vasopressin V2 receptor) [nM]	Kd (Vasopressin V1 receptor) [nM]	Kd [1] [nM]
CC[C@H](C)[C@@H]1NC(=O)[C@@H]2c3[nH]c4ccccc4c3CCN2C(=O)CCSSC[C@H](C(=O)N(C)CC(=O)N[C@@H](CCCN=C(N)N)C(=O)NCC(N)=O)NC(=O)[C@H](CC(N)=O)NC(=O)[C@H](CCC(N)=O)NC1=O	> 100000	17.8	
CC[C@H](C)[C@@H]1NC(=O)[C@@H](Cc2c[nH]c3ccccc23)NC(=O)CC2(CCCCC2)SSC[C@@H](C(=O)N(C)CC(=O)N[C@@H](CCCNC(=N)N)C(=O)NCC(N)=O)NC(=O)[C@H](CC(N)=O)NC(=O)[C@H](CCC(N)=O)NC1=O	3		6
CC[C@H](C)[C@@H]1NC(=O)[C@@H]2c3[nH]c4ccccc4c3CCN2C(=O)CCSSC[C@H](C(=O)N(C)CC(=O)N[C@@H](CCCN=C(N)N)C(=O)NCC(N)=O)NC(=O)[C@H](CC(N)=O)NC(=O)[C@H](CCC(N)=O)NC1=O (single isomer, unassigned)	> 100000	63.5	

Further molecules by falling Kd (Vasopressin V2 receptor), results first:

Kd (Vasopressin V2 receptor) [nM]	Kd (Vasopressin V1 receptor) [nM]	Kd [1] [nM]	Compound
5340	2640		CC[C@H](C)[C@@H]1NC(=O)[C@]2(CCc3ccccc3C2)NC(=O)CCSSC[C@@H](C(=O)N(C)CC(=O)N[C@@H](CCCN=C(N)N)C(=O)NCC(N)=O)NC(=O)[C@H](CC(N)=O)NC(=O)[C@H](CCC(N)=O)NC1=O ([Mpa][X1]IQNC[Sar]RG-NH2; disulfide 1-6)
4960	888		CC[C@H](C)[C@@H]1NC(=O)[C@@H](Cc2c[nH]c3ccccc23)NC(=O)CCSSC[C@@H](C(=O)N(C)CC(=O)N[C@@H](CCCNC(=N)N)C(=O)NCC(N)=O)NC(=O)[C@H](CC(N)=O)NC(=O)[C@H](CCC(N)=O)NC1=O
2290	17600		CC[C@H](C)[C@@H]1NC(=O)[C@@]2(CCc3ccccc3C2)NC(=O)CCSSC[C@@H](C(=O)N(C)CC(=O)N[C@@H](CCCN=C(N)N)C(=O)NCC(N)=O)NC(=O)[C@H](CC(N)=O)NC(=O)[C@H](CCC(N)=O)NC1=O ([Mpa][Atc(2S)]IQNC[Sar]RG-NH2; disulfide 1-6)
421			CC[C@H](C)[C@@H]1NC(=O)[C@@H](Cc2ccccc2)NC(=O)CCSSC[C@@H](C(=O)N(C)CC(=O)N[C@@H](CCCNC(=N)N)C(=O)NCC(N)=O)NC(=O)[C@H](CC(N)=O)NC(=O)[C@H](CCC(N)=O)NC1=O
